“Also recorded” adds a separate entry of the source.
What was measured:
MPTP-Induced Dyskinesia = test: L-dopa-induced dyskinesia in MPTP-lesioned macaques; format: in vivo, cynomolgus macaques
From the text: It is now used in non-human primates to model primary parkinsonian motor symptom phenotypes and subsequent response to therapies such as L-dopa including dyskinesia-thus it can be used as foundational model for LID. See Huat 2012. (Huot P, Johnston T H, Koprich J B, Fox S H, Brotchie J M. L-DOPA pharmacokinetics in the MPTP-lesioned macaque model of Parkinson's disease. Neuropharmacology. 2012 October; 63(5):829-36.) Having both face validity and construct validity, the MPTP non-human primate model is considered the animal model of PD motor symptoms with the highest translational relevance.
A study was conducted in seven female MPTP-lesioned cynomolgus macaques that received chronic repeat treatment with L-dopa and in response manifested stable and reproducible dyskinesia that was choreic and dystonic in nature. Macaque behaviors were assessed following a single 1 mg/kg dose of Compound 1 or vehicle in combination with high-dose of L-dopa delivered as Madopar™ with a dose titrated for LID symptoms in each test animal. The ‘on time’ therapeutic effects and abnormal LID movements were assessed for 6 hours following administration of L-dopa. A single Compound 1 oral dose of 1 mg/kg or vehicle was administered at the same time as L-dopa at the start of behavioral observations. All animals received all treatments in a cross-over design with a minimum of 72 hours between repeat treatments in each animal. The therapeutic and LID behaviors were scored by trained raters supervised by a neurologist in a blinded fashion using high-definition video recordings and the non-human primate dyskinesia rating scale. See Fox 2012. (Fox S H, Johnston T H, Li Q, Brotchie J, Bezard E. A critique of available scales and presentation of the Non-Human Primate Dyskinesia Rating Scale. Mov Disord. 2012 Sep. 15; 27(11):1373-8.)

[1] = Clinical observations during 7-day oral dosing in beagle dogs; details: Group 1: Compound 1 1.5 mg/kg/day PO, individual dog, 1.5 mg/kg/day
[2] = Plasma pharmacokinetics after single-dose intravenous administration in rats; format: in vivo, Sprague Dawley rats; details: rat, in vivo, iv, 1.5 mg/kg
Description: The plasma concentration-time profile was evaluated for fesoterodine active metabolite desfesoterodine and Compound 1 in male Sprague Dawley rats following single-dose intravenous administration of fesoterodine (0.25 mg/kg) and Compound 1 (0.5 mg/kg and 1.5 mg/kg) alone and single-dose co-administration. Plasma exposures of desfesoterodine were similar following administration of fesoterodine alone and in combination with Compound 1.

[3] = Single ascending dose study: pharmacokinetics (plasma, CSF); format: in vivo
Description: Compound 1 was administered in a single ascending dose (SAD) study conducted in approximately 54 healthy adult volunteers to investigate Compound 1 pharmacokinetics, safety, and tolerability. The study was conducted in two groups.
Group 2 evaluated tolerability of Compound 1 at Group 1 MTD with or without fesoterodine fumarate co-administration. Subjects received 8 mg of fesoterodine fumarate tablet or matched placebo tablet 4 hours prior to administration of 40 mg of Compound 1.

[4] = Compound 1 1 mg/kg PO with high-dose L-dopa, vs vehicle
[5] = Group 2, 40 mg Compound 1, 8 mg fesoterodine fumarate

Cc1noc([C@@]23CNC[C@@H]2C3)n1 [Compound 1, 1-(3-methyl-[1,2,4]oxadiazol-5-yl)-(1R,5R)-3-aza-bicyclo[3.1.0]hexane]
anti-parkinsonian benefit of L-DOPA and overall duration of on-time (MPTP-Induced Dyskinesia; Compound 1 1 mg/kg PO with high-dose L-dopa): no reduction | decrease in the duration of ‘bad’ on-time (on-time associated with disabling dyskinesia) (MPTP-Induced Dyskinesia; [4]): 41% | increase in the duration of ‘good’ on-time (lack of, or only non-disabling dyskinesia) (MPTP-Induced Dyskinesia; [4]): 143% | reduction of median levels of dyskinesia during the 0-1 h period (MPTP-Induced Dyskinesia; Compound 1 1 mg/kg PO with high-dose L-dopa, vs vehicle, P<0.001): 91% | reduction of median levels of dyskinesia cumulated over the 0-2 h period (MPTP-Induced Dyskinesia; Compound 1 1 mg/kg PO with high-dose L-dopa, vs vehicle, P=0.0156): 42% | median levels of dyskinesia during the 0-1 h period (MPTP-Induced Dyskinesia; Compound 1 1 mg/kg PO with high-dose L-dopa, vehicle 11): 1 | median levels of dyskinesia cumulated over the 0-2 h period (MPTP-Induced Dyskinesia; Compound 1 1 mg/kg PO with high-dose L-dopa, vehicle 33): 19 | animals with a robust reduction in LID (MPTP-Induced Dyskinesia; Compound 1 1 mg/kg PO, seven animals in final analyses): six of the seven animals | Clinical Observation ([1]; day 1): For D1005, ptyalism was found 1 hr 20 min after dosing on day 1; also recorded: For D1001, soft feces were found 1 hr 45 min after dosing on day 1; also recorded: For D1005, about 4 mL white foamy mucoid vomitus was found 40 min; also recorded: For D1005, soft feces was found 1 hr after dosing on day 1; also recorded: For D1005, about 8 mL yellow foamy mucoid vomitus was found 1 hr | Clinical Observation ([1]; day 3): For D1005, 20 mL chyme was found 45 min after dosing on day 3; also recorded: For D1005, soft feces was found 80 min after dosing on day 3; also recorded: For D1005, 20 mL liquid feces was found 3.5 hr after dosing on day 3; also recorded: For D1001, ptyalism was found 2 hr after dosing on day 3. 8 hr recover; also recorded: For D1001, 20 mL chyme and ptyalism were found 3.5 hr after dosing; also recorded: For D1002, 10 mL chyme was found 55 min after dosing on day 3; also recorded: For D1002, 10 mL liquid feces and ptyalism were found 80 min after; also recorded: For D1002, ptyalism was found 2 hr after dosing on day 3. 8 hr recover; also recorded: For D1003, ptyalism was found 2 hr after dosing on day 3. 8 hr recover; also recorded: For D1003, 10 mL chyme, 5 mL liquid feces and ptyalism were found; also recorded: For D1003, 10 mL liquid feces and ptyalism were found 4 hr after; also recorded: For D1004, 15 mL chyme and soft feces were found 55 min after dosing; also recorded: For D1004, 2 mL liquid feces and ptyalism were found 80 min after; also recorded: For D1004, 20 mL chyme was found 90 min after dosing on day 3; also recorded: For D1004, ptyalism was found 2 hr after dosing on day 3. 8 hr recover; also recorded: For D1001, 10 mL chyme was found 55 min after dosing on day 3 | Clinical Observation ([1]; day 4): For D1005, 15 mL chyme was found 40 min after dosing on day 4; also recorded: For D1005, 10 mL chyme and 10 mL liquid feces were found 2 hr after; also recorded: For D1001, 15 mL chyme was found 2 hr after dosing on day 4; also recorded: For D1001, ptyalism and 15 mL liquid feces were found 3 hr after; also recorded: For D1002, 15 mL chyme and 10 mL liquid feces were found 2 hr after; also recorded: For D1002, ptyalism and 5 mL liquid feces were found 3 hr after dosing; also recorded: For D1003, soft feces was found 3 hr after dosing on day 4; also recorded: For D1004, ptyalism was found 2 hr after dosing on day 4; also recorded: For D1004, 8 mL liquid feces was found 3 hr after dosing on day 4; also recorded: For D1004, soft feces was found 220 min after dosing on day 4 | Clinical Observation ([1]; day 5): For D1003, 5 mL chyme was found 2 hr after dosing on day 5. | Clinical Observation ([1]; day 6): For D1005, 15 mL chyme, 30 mL liquid feces and ptyalism were found; also recorded: For D1005, 15 mL chyme was found 2 hr after dosing on day 6; also recorded: For D1001, ptyalism was found 30 min after dosing on day 6. 8 hr; also recorded: For D1001, ptyalism and soft feces were found 1 hr after dosing on day 6; also recorded: For D1002, ptyalism was found 30 min after dosing on day 6. 8 hr; also recorded: For D1002, 10mL liquid feces and ptyalism were found 1 hr after dosing; also recorded: For D1002, 20 mL chyme, 10 mL liquid feces and ptyalism were found; also recorded: For D1003, ptyalism was found 30 min after dosing on day 6. 8 hr; also recorded: For D1003, 30 mL liquid feces, ptyalism and tremor were found 2 hr; also recorded: For D1003, 10 mL chyme was found 3 hr after dosing on day 6; also recorded: For D1004, 10 mL liquid feces and ptyalism were found 1 hr after; also recorded: For D1004, 5 mL chyme was found 3 hr after dosing on day 6 | Clinical Observation ([1]; day 7): For D1005, about 8 mL liquid feces was found 2 hr after dosing on day 7; also recorded: For D1001, ptyalism was found 1 hr after dosing on day 7. 4 hr recover; also recorded: For D1001, miosis was found 1 hr after dosing on day 7. 8 hr recover; also recorded: For D1001, about 5 mL liquid feces and about 3 mL yellow liquid; also recorded: For D1002, ptyalism was found 1 hr after dosing on day 7. 4 hr recover; also recorded: For D1003, ptyalism was found 1 hr after dosing on day 7. 4hr recover; also recorded: For D1003, about 10 mL liquid feces was found 2 hr after dosing on day 7; also recorded: For D1004, ptyalism was found 1 hr after dosing on day 7. 4 hr recover; also recorded: For D1004, about 3 mL yellow liquid vomitus was found 1 hr after | Vss as fold of total body water (0.7 L/kg) ([2]; male, Sprague Dawley): approximately 2.4 fold | plasma clearance as % of the normal liver blood flow in rats (55 mL/min/kg) ([2]; male, Sprague Dawley): approximately 50% | AUC(0-t) ([2]; male, Sprague Dawley, AUClast of Compound 1): 917 ng·h/mL | C0 ([2]; male, Sprague Dawley, C0 of Compound 1): 1520 ng/mL | clearance ([2]; male, Sprague Dawley, CL of Compound 1): 27.2 mL/min/kg | half-life ([2]; male, Sprague Dawley, T1/2 of Compound 1): 49.8 min | Vd ([2]; male, Sprague Dawley, VSS of Compound 1): 1.71 L/kg | PK parameters of Compound 1, single-agent vs co-administration with fesoterodine [2]: comparable | increase in exposure of Compound 1 following co-administration of fesoterodine fumarate, AUC0-inf [3, 5]: 29.0% | increase in exposure of Compound 1 following co-administration of fesoterodine fumarate, AUC0-t [3, 5]: 30.0% | increase in exposure of Compound 1 following co-administration of fesoterodine fumarate, Cmax ([3]; Group 2, 40 mg Compound 1, 8 mg fesoterodine fumarate, p-value: 0.0347): 50.0% | compound 1 concentration in CSF at 1hour post-dose, mean ([3]; human, in vivo, 1 h): 50.30 ng/mL | mean compound 1 concentration in CSF at 1 hour post-dose ([3]; human, in vivo, 1 h): 56.96 ng/mL | Tmax ([3]; human, in vivo, single oral doses, healthy subjects, read-out: median tmax): 39 to 70.2 min

Source: patent publication US20250032460A1, “METHODS OF TREATING NEUROLOGICAL DISORDERS” (MapLight Therapeutics, Inc., priority 2021, published 2025)
